Experimental data: US11911386B2, “Methods of treating B-cell proliferative disorder” (BeiGene Switzerland GmbH, priority 2022, dated 2024)
“And” between values parts separate entries of the source, which are not always exact repeats. Identical values can stand only once. Like-named read-outs stand apart in the source and are kept apart here.

C=CC(=O)N1CCC([C@@H]2CCNc3c(C(N)=O)c(-c4ccc(Oc5ccccc5)cc4)nn32)CC1 [zanubrutinib, (S)-7-(1-acryloylpiperidin-4-yl)-2-(4-phenoxyphenyl)-4,5,6,7-tetrahydropyrazolo[1,5-a]pyrimidine-3-carboxamide]
Anemia AESI ≥Grade 3, EAIR (After Coadministration): 0.18 per 100 person-months
Anemia AESI, EAIR (After Coadministration): 0.53 per 100 person-months
Atrial fibrillation PT (After Coadministration): 2.8%
Atrial fibrillation and flutter AESI Grade ≥3, EAIR (After Coadministration): 0.18 per 100 person-months
Atrial fibrillation and flutter AESI Grade ≥3, patients (After Coadministration): 3.7%
Atrial fibrillation and flutter AESI, EAIR (After Coadministration): 0.23 per 100 person-months
Atrial fibrillation and flutter AESI, patients (After Coadministration): 4.7%
Atrial flutter PT (After Coadministration): 1.9%
Basal cell carcinoma (After Coadministration): 5.6%
Basal cell carcinoma leading to dose interruption (After Coadministration): 1 (0.9%) n (%)
Basal cell carcinoma ≥Grade 3 (After Coadministration): 1 (0.9%) n (%)
External ear neoplasm malignant leading to dose interruption (After Coadministration): 0 (0.0%) n (%)
Febrile neutropenia PT (After Coadministration): 3.7%
Grade 3 or higher AESI (After Coadministration): 48 (44.9) n (%)
Haematuria (hemorrhage AESI) (After Coadministration): 4.7%
Haematuria (major hemorrhage) (After Coadministration): 0 (0.0%) n (%)
Haematuria (major hemorrhage) ≥Grade 3 (After Coadministration): 0 (0.0%) n (%)
Haematuria leading to dose interruption (After Coadministration): 0.0%
Haematuria ≥Grade 3 (After Coadministration): 0 (0.0%) n (%)
Hemorrhage AESI leading to dose interruption (After Coadministration): 2.8%
Hemorrhage AESI leading to dose reduction (After Coadministration): 0.9%
Hemorrhage AESI ≥Grade 3, EAIR (After Coadministration): 0.09 per 100 person-months
Hemorrhage AESI ≥Grade 3, patients (After Coadministration): 1.9%
Hemorrhage AESI, EAIR (After Coadministration): 1.39 per 100 person-months
Hemorrhage AESI, patients (After Coadministration): 23.4%
Hypertension AESI ≥Grade 3, EAIR (After Coadministration): 0.18 per 100 person-months
Hypertension AESI ≥Grade 3, patients (After Coadministration): 3.7%
Hypertension AESI, EAIR (After Coadministration): 0.37 per 100 person-months
Hypertension AESI, patients (After Coadministration): 7.5%
Infection AESI leading to dose reduction (After Coadministration): 1.9%
Infection AESI leading to treatment discontinuation (After Coadministration): 3.7%
Infection AESI ≥Grade 3, EAIR (After Coadministration): 1.45 per 100 person-months
Infection AESI, EAIR (After Coadministration): 9.70 per 100 person-months
Major hemorrhage AESI leading to dose interruption (After Coadministration): 0.9%
Major hemorrhage AESI ≥Grade 3, EAIR (After Coadministration): 0.09 per 100 person-months
Major hemorrhage AESI ≥Grade 3, patients (After Coadministration): 1.9%
Major hemorrhage AESI, EAIR (After Coadministration): 0.09 per 100 person-months
Major hemorrhage AESI, patients (After Coadministration): 1.9%
Malignant melanoma (After Coadministration): 1 (0.9%) n (%)
Neutropenia AESI leading to dose reduction (After Coadministration): 1.9%
Neutropenia AESI leading to treatment interruption (After Coadministration): 6.5%
Neutropenia AESI ≥Grade 3, EAIR (After Coadministration): 0.63 per 100 person-months
Neutropenia AESI ≥Grade 3, patients (After Coadministration): 20.1%
Neutropenia AESI, EAIR (After Coadministration): 0.92 per 100 person-months
Neutropenia AESI, patients (After Coadministration): 16.8%
Neutropenic sepsis PT (After Coadministration): 0.0%
Neutropenic sepsis ≥Grade 3 (After Coadministration): 0.0%
Neutrophil count decreased leading to dose reduction (After Coadministration): 0.0%
Opportunistic infection AESI leading to dose reduction (After Coadministration): 0.9%
Opportunistic infection AESI leading to treatment discontinuation (After Coadministration): 0.9%
Opportunistic infection AESI ≥Grade 3, EAIR (After Coadministration): 0.04 per 100 person-months
Opportunistic infection AESI ≥Grade 3, patients (After Coadministration): 1 (0.9%) n (%)
Opportunistic infection AESI, EAIR (After Coadministration): 0.13 per 100 person-months
Opportunistic infection AESI, patients (After Coadministration): 2.8%
Opportunistic infection SAEs, EAIR (After Coadministration): 0.04 per 100 person-months
Patients with at least 1 AESI (After Coadministration): 89 (83.2) n (%)
Petechiae (hemorrhage AESI) (After Coadministration): 0.0%
Platelet count decreased PT (After Coadministration): 4.7%
Platelet count decreased ≥Grade 3 (After Coadministration): 0.9%
Purpura (hemorrhage AESI) (After Coadministration): 0.0%
SAEs of opportunistic infections, patients (After Coadministration): 0.9% and 2.8%
Second primary malignancies AESI leading to dose interruption (After Coadministration): 5.6%
Second primary malignancies AESI leading to treatment discontinuation (After Coadministration): 2.8%
Second primary malignancies AESI ≥Grade 3, EAIR (After Coadministration): 0.27 per 100 person-months
Second primary malignancies AESI ≥Grade 3, patients (After Coadministration): 5.6%
Second primary malignancies AESI, EAIR (After Coadministration): 0.60 per 100 person-months
Second primary malignancies AESI, patients (After Coadministration): 12.1%
Serious anemia AESI, EAIR (After Coadministration): 0.04 per 100 person-months
Serious atrial fibrillation and flutter AESI, EAIR (After Coadministration): 0.09 per 100 person-months
Serious atrial fibrillation and flutter AESI, patients (After Coadministration): 1.9%
Serious external ear neoplasm malignant (After Coadministration): 0 (0.0%) n (%)
Serious haematuria (After Coadministration): 0 (0.0%) n (%)
Serious haematuria (major hemorrhage) (After Coadministration): 0 (0.0%) n (%)
Serious hemorrhage AESI, EAIR (After Coadministration): 0.09 per 100 person-months
Serious hemorrhage AESI, patients (After Coadministration): 1.9%
Serious infection AESI, EAIR (After Coadministration): 1.15 per 100 person-months
Serious major hemorrhage AESI, EAIR (After Coadministration): 0.09 per 100 person-months
Serious major hemorrhage AESI, patients (After Coadministration): 1.9%
Serious neutropenia AESI, EAIR (After Coadministration): 0.18 per 100 person-months
Serious neutropenia AESI, patients (After Coadministration): 3.7%
Serious neutropenic sepsis (After Coadministration): 0%
Serious neutrophil count decreased (After Coadministration): 0.0%
Serious second primary malignancies AESI, EAIR (After Coadministration): 0.13 per 100 person-months
Serious second primary malignancies AESI, patients (After Coadministration): 2.8%
Serious squamous cell carcinoma of skin (After Coadministration): 0 (0.0%) n (%)
Skin cancer AESI ≥Grade 3, EAIR (After Coadministration): 0.13 per 100 person-months
Skin cancer AESI, EAIR (After Coadministration): 0.41 per 100 person-months
Skin cancer AESI, patients (After Coadministration): 8.4%
Skin cancer SAE, EAIR (After Coadministration): 0.04 per 100 person-months
Squamous cell carcinoma of skin (After Coadministration): 0.9%
Squamous cell carcinoma of skin ≥Grade 3 (After Coadministration): 1 (0.9%) n (%)
Thrombocytopenia AESI leading to dose interruption (After Coadministration): 0.0%
Thrombocytopenia AESI ≥Grade 3, EAIR (After Coadministration): 0.13 per 100 person-months
Thrombocytopenia AESI ≥Grade 3, patients (After Coadministration): 2.8%
Thrombocytopenia AESI, EAIR (After Coadministration): 0.41 per 100 person-months
Thrombocytopenia AESI, patients (After Coadministration): 8.4%
Thrombocytopenia PT (After Coadministration): 3.7%
Anemia AESI ≥Grade 3, EAIR (During Coadministration): 1.70 per 100 person-months
Anemia AESI, EAIR (During Coadministration): 1.91 per 100 person-months
Atrial fibrillation PT (During Coadministration): 1.4%
Atrial fibrillation and flutter AESI Grade ≥3, EAIR (During Coadministration): 0.33 per 100 person-months
Atrial fibrillation and flutter AESI Grade ≥3, patients (During Coadministration): 1.4%
Atrial fibrillation and flutter AESI, EAIR (During Coadministration): 0.33 per 100 person-months
Atrial fibrillation and flutter AESI, patients (During Coadministration): 1.4%
Atrial flutter PT (During Coadministration): 0.0%
Basal cell carcinoma (During Coadministration): 0.0%
Basal cell carcinoma leading to dose interruption (During Coadministration): 0 (0.0%) n (%)
Basal cell carcinoma ≥Grade 3 (During Coadministration): 0 (0.0%) n (%)
Epistaxis (hemorrhage AESI) (During Coadministration): 1.4%
External ear neoplasm malignant leading to dose interruption (During Coadministration): 1 (0.7%) n (%)
Febrile neutropenia PT (During Coadministration): 2.9%
Grade 3 or higher AESI (During Coadministration): 36 (26.1) n (%)
Haematuria (hemorrhage AESI) (During Coadministration): 1.4%
Haematuria (major hemorrhage) (During Coadministration): 0 (0.0%) n (%)
Haematuria (major hemorrhage) ≥Grade 3 (During Coadministration): 0 (0.0%) n (%)
Haematuria leading to dose interruption (During Coadministration): 0 (0.0%) n (%)
Haematuria ≥Grade 3 (During Coadministration): 0 (0.0%) n (%)
Hemorrhage AESI leading to dose interruption (During Coadministration): 0.7%
Hemorrhage AESI ≥Grade 3, EAIR (During Coadministration): 0.16 per 100 person-months
Hemorrhage AESI ≥Grade 3, patients (During Coadministration): 0.7%
Hemorrhage AESI, EAIR (During Coadministration): 4.04 per 100 person-months
Hemorrhage AESI, patients (During Coadministration): 14.5%
Herpes zoster (During Coadministration): 2.2%
Hypertension AESI ≥Grade 3, EAIR (During Coadministration): 0.17 per 100 person-months
Hypertension AESI ≥Grade 3, patients (During Coadministration): 0.7%
Hypertension AESI, EAIR (During Coadministration): 0.70 per 100 person-months
Hypertension AESI, patients (During Coadministration): 2.9%
Infection AESI leading to dose reduction (During Coadministration): 1.4%
Infection AESI leading to treatment discontinuation (During Coadministration): 4.3%
Infection AESI ≥Grade 3, EAIR (During Coadministration): 5.83 per 100 person-months
Infection AESI, EAIR (During Coadministration): 16.79 per 100 person-months
Major hemorrhage AESI leading to dose interruption (During Coadministration): 0.7%
Major hemorrhage AESI ≥Grade 3, EAIR (During Coadministration): 0.16 per 100 person-months
Major hemorrhage AESI ≥Grade 3, patients (During Coadministration): 0.7%
Major hemorrhage AESI, EAIR (During Coadministration): 0.16 per 100 person-months
Major hemorrhage AESI, patients (During Coadministration): 0.7%
Malignant melanoma (During Coadministration): 0 (0.0%) n (%)
Neutropenia AESI leading to dose reduction (During Coadministration): 0.0%
Neutropenia AESI leading to treatment interruption (During Coadministration): 7.2%
Neutropenia AESI ≥Grade 3, EAIR (During Coadministration): 3.72 per 100 person-months
Neutropenia AESI ≥Grade 3, patients (During Coadministration): 12.3%
Neutropenia AESI, EAIR (During Coadministration): 5.43 per 100 person-months
Neutropenia AESI, patients (During Coadministration): 17.4%
Neutropenic sepsis PT (During Coadministration): 0.0%
Neutropenic sepsis ≥Grade 3 (During Coadministration): 0.0%
Neutrophil count decreased leading to dose reduction (During Coadministration): 0.0%
Opportunistic infection AESI leading to dose reduction (During Coadministration): 0.7%
Opportunistic infection AESI leading to treatment discontinuation (During Coadministration): 0.7%
Opportunistic infection AESI ≥Grade 3, EAIR (During Coadministration): 0.50 per 100 person-months
Opportunistic infection AESI ≥Grade 3, patients (During Coadministration): 3 (2.2%) n (%)
